Measurements taken from publication PMC7970304, “The Effects of Apelin and Elabela Ligands on Apelin Receptor Distinct Signaling Profiles” (Frontiers in Pharmacology, 2021).

Biological target: T1, APJ (Apelin receptor) (Homo sapiens, UniProt P35414)
T1 sequence (P35414 1-380): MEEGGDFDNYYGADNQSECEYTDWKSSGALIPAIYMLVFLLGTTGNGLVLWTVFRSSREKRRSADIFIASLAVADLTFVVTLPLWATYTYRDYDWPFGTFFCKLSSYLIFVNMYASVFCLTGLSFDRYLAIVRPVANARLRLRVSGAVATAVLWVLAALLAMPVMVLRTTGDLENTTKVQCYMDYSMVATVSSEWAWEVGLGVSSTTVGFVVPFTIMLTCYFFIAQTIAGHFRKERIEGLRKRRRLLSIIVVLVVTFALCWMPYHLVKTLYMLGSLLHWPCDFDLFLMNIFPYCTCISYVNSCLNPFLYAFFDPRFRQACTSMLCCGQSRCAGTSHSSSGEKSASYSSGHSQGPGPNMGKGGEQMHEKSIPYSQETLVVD
Test: BRET-based cAMP biosensor (CAMYEL) assay
Assay type: cell-based
Procedure: The cAMP concentration was measured using a BRET-based cAMP biosensor ([Barak et al., 2008]; [Ji et al., 2017]) in HEK293 cells transiently co-expressing YFP-Epac-RLuc and APJ. The sensor is composed of an N-terminal truncated variant of EPAC tagged with Rluc and YFP at N-terminal and C-terminal, respectively. […] At 24 h after transfection, cells were digested and plated into a 96-well microplate for 24 h following adding the substrate coelenterazine H into the medium at the final concentration of 5 µM and the nonspecific phosphodiesterase inhibitor IBMX (40 μM) for 20 min, and the cells were stimulated for 10 min with forskolin (10 μM).
(A) A schematic diagram of YFP-cAMP-Rluc fusion expression vector. […] Data represent mean ± SEM from four independent experiments (Supplementary Table S1).
The concentration-response data for the ligands in various assays were analyzed to determine the biases of the ligands for G protein dependent signaling or β-arrestin dependent signaling, according to a previously published method ([Kenakin et al., 2012]; [Hager et al., 2016]; [Hothersall et al., 2017]). Briefly, the concentration-response data for each ligand were fitted to the Black–Leff operation model to obtain the values of τ and K A, using the following equation: Response=[A]^nτ^nEm/[A]^nτ^n+([A]KA)^n where [A] is the concentration of the agonist, E m is the maximal response of the system, n is the transducer slope, and K A and τ describe the affinity and efficacy of the agonist, respectively. In the data fitting, the reparametrized form of the equation proposed by [Kenakin et al. (2012)] was used: Response=Em/1+exp{nln[1+exp(β1)/[A]]−nβ2} where β 1 and β 2 are the natural logarithm of K A and τ, respectively, and E m was set to 1. Thus, for each concentration-response curve, a non-linear regression was performed to fit the above equation to give β 1 and β 2 (as well as n). Log (τ/K A) values (“transduction coefficients”) for each ligand vs. each pathway were obtained. […] The ΔΔlog (τ/K A), or Log (Bias), which is the logarithm of the bias factor for a given pathway over a reference pathway (here, intracellular calcium release), was calculated for each ligand as Δlog (τ/K A)–Δlog (τ/K A)Calcium. The 95% confidence interval (CI) was expressed as the mean ± standard error; Log (Bias) values, whose 95% CI crosses 0, were considered statistically insignificant.
The data were analyzed using GraphPad Prism v5.0. All the data are presented as the mean ± SEM. Differences between groups were compared by one-way analysis of variants (ANOVA), followed by post-hoc tests (Tukey’s test), When p < 0.05, the difference was considered significant. All experiments were repeated at least four times. The dose-response curves were generated using non-linear fitting model log (agonist) vs. response (three-parameters), with Hill Slope held to 1, i.e., Y = Bottom + (Top-Bottom)/(1 + 10^(LogEC50-X)).
P<0.05 was considered as statistically significant. Control group (HG, Cells were stimulated with high glucose (Glucose Concentration: 4500 mg/L, HEPES, No Phenol Red). Data represent mean ± SEM from four independent experiments. Statistical analysis (Table S1)

P vs HG, cAMP production (0.001 nM): P>0.05
P vs HG, cAMP production (0.01 nM): P>0.05
P vs HG, cAMP production (0.1 nM): P>0.05
P vs HG, cAMP production (1 nM): ^**P<0.01
P vs HG, cAMP production (10 nM): ^***P<0.001
P vs HG, cAMP production (100 nM): ^***P<0.001
P vs HG, cAMP production (1000 nM): ^***P<0.001
Bias factor (cAMP over Ca2+, reference Apelin-13): 38.0
Log (Bias) (cAMP over Ca2+, reference Apelin-13, footnote a = statistically insignificant): 1.6 ± 0.3
bias over calcium release (cAMP pathway): 38 fold
log (τ/KA) (cAMP, Black–Leff operational model): −0.1 ± 0.1
Δlog (τ/KA) (cAMP, relative to Apelin-13): 0.0 ± 0.2
SMILES: CSCC[C@H](NC(=O)[C@@H]1CSSC[C@H](NC(=O)[C@H](CC(N)=O)NC(=O)[C@H](Cc2c[nH]cn2)NC(=O)[C@H](CCCCN)NC(=O)[C@H](CCCNC(=N)N)NC(=O)[C@@H](N)CC(C)C)C(=O)N[C@@H](CC(C)C)C(=O)N[C@@H](CCC(N)=O)C(=O)N[C@@H](CCCNC(=N)N)C(=O)N[C@@H](CCCNC(=N)N)C(=O)N1)C(=O)N1CCC[C@H]1C(=O)N[C@@H](CC(C)C)C(=O)N[C@@H](Cc1c[nH]cn1)C(=O)N[C@@H](CO)C(=O)N[C@@H](CCCNC(=N)N)C(=O)N[C@H](C(=O)N1CCC[C@H]1C(=O)N[C@@H](Cc1ccccc1)C(=O)N1CCC[C@H]1C(=O)O)C(C)C [Elabela-21]
